Results published in publication PMC11253624, “Unsaturated fatty acid perturbation combats emerging triazole antifungal resistance in the human fungal pathogen Aspergillus fumigatus” (mBio, 2024).
Values after ≈ are worked out from the molar mass of the structure shown. Like-named read-outs stand apart in the source and are kept apart here.

Experiments:
Apophysomyces spp. = assay: CLSI-based microbroth dilution MIC, spectrum of activity; type: cell-based
Fusarium spp. = assay: as above; type: cell-based; conditions: solani and oxysporum
Aspergillus fumigatus [1] = assay: CLSI-based microbroth dilution MIC, A. fumigatus strains
Aspergillus flavus = assay: CLSI-based microbroth dilution MIC, spectrum of activity; type: cell-based; conditions: for MIC: Aspergillus flavus
Candida auris = assay: CLSI-based microbroth dilution MIC for yeast; type: cell-based; conditions: Candidozyma auris
[2] = tested on: A. fumigatus CEA10 reference strain; assay: MIC of HTS hits vs A. fumigatus CEA10, CLSI microbroth dilution, with or without 32 µg/mL fluconazole; conditions: for MIC: Aspergillus fumigatus
Aspergillus fumigatus [3] = assay: Colony recovery after CLSI MIC testing (fungicidal test); type: cell-based; conditions: at MIC (2.453 μg/ml) and 2X MIC (4.906 μg/ml)
Description: Perhaps consistent with these lipid profiling data, transmission electron microscopy images of MBX-7591-treated cells reveal a loss of cellular membrane integrity, a large increase in the electron translucent cell wall, and a significant increase in electron density in the cytoplasm (Fig. S1B). These TEM images are consistent with cell death upon MBX-7591 treatment.
115 Supplementary Figure 1. MBX-7591 pre-treatment induces cell death.
116 A) Biofilms grown for 12 hours with MBX-7591 pre-treatment (PT) are more susceptible to
117 subsequent 6-hour voriconazole (VCZ) treatment. MBX-7591 PT + VCZ biofilms show higher
118 sytox staining and nuclear collapse indicative of increased cell membrane permeability and cell
119 death. B) TEM image of cross section of Aspergillus fumigatus hyphae from 24-hour biofilms
120 grown in vehicle control or 0.588 μg/ml MBX-7591. MBX-7591 induces changes in the cell wall,
121 increased vacuolization and increased cytosolic density (black arrows). C) MBX-7591 reduces
CLSI assay done as described in methods and incubated for 48 hours at
124 37°C, 5%CO2. Subsequently 100 µL of untreated control, ½ MIC, MIC and 2X MIC wells were
125 plated onto GMM and incubated at 37°C, 5%CO2 for 48h. Representative images of fungal
126 growth of 2 independent biological replicates shown.

Aspergillus nidulans = assay: microbe, parasite or virus in culture; type: cell-based; conditions: strain FGSC A4
A. fumigatus CEA10 = assay: Fatty acid profile of 24-hour biofilms by GC-MS; type: cell-based, Aspergillus fumigatus; conditions: CEA10 24-hour biofilm; MBX-7591 0.58 µg/mL, voriconazole 0.0625 µg/mL
Histoplasma capsulatum = assay: microbe, parasite or virus in culture; type: cell-based
[4] = Liver microsome stability; type: in vitro ADME; conditions: mouse; murine liver microsomes, NADPH; read-out: MLMS (t1/2)
Description: To examine the potential for first-pass metabolism of analogs in the liver, the stability of analogs in the presence of liver microsome preparations (Eurofins Discovery for human, dog, and rat; Xenotech for mouse) was measured using the method of Kuhnz and […] ([52]). The amount of parent compound remaining after incubation with microsomes in the presence of NADPH over a 30-min time range was measured using a reverse-phase liquid chromatography/mass spectroscopy method that was customized for each compound. Half-lives were calculated using linear regression analysis of several time points.

Blastomyces dematitidis = assay: microbe, parasite or virus in culture; type: cell-based
Coccidioides spp. = assay: microbe, parasite or virus in culture; type: cell-based
Rhizopus delemar = assay: CLSI-based microbroth dilution MIC, spectrum of activity; type: cell-based; conditions: strain 99-880; for MIC: Rhizopus delemar
CYP3A4 = target: T1, CYP3A4 (Homo sapiens, UniProt P08684); assay: CYP450 inhibition; type: in vitro ADME; conditions: Human Cytochrome P450 kit (BD Gentest), read-out: Human CYP3A4 inhibition (%INH at 10 µM)
T1 construct: purchased BD Gentest Corp, Woburn, MA, USA
T1 sequence (P08684 whole entry): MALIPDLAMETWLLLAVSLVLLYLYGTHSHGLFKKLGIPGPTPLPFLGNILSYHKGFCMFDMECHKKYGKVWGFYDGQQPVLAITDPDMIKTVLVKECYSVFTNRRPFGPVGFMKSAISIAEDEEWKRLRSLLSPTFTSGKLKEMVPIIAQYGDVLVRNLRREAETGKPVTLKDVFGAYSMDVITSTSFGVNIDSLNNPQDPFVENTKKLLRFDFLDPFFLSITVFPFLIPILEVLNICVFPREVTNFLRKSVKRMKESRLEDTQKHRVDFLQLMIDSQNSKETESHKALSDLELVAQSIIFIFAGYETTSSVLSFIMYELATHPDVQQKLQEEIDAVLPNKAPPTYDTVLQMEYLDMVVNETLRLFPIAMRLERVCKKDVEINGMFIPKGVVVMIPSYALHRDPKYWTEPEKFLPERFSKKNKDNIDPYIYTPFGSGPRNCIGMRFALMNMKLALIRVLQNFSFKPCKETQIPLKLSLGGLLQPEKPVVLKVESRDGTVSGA
Description: Inhibition of the CYP450 enzyme CYP3A4 by each compound at a final concentration of 10 µM was measured using a commercially available Human Cytochrome P450 kit (BD Gentest Corp, Woburn, MA, USA) according to the manufacturer’s instructions.

Caco-2 permeability = type: in vitro ADME; conditions: human
[5] = read-out: MIC UTHSC, strain DI14-269
[6] = read-out: MIC UTHSC, strain DI14-284
[7] = read-out: MIC UTHSC, strain DI17-143

Compound O=C(c1ccsc1)N1CCC(Cc2ccc(COc3ccncc3)cc2)CC1 [MBX-7591] has an MIC (Apophysomyces spp.; strain Apo1) of 0.5 µg/mL (≈ 1.27 µM), an MIC (Apophysomyces spp.; strain Apo2) of 16 µg/mL (≈ 40.8 µM) and an MIC (Apophysomyces spp.; strain Apo3) of 4 µg/mL (≈ 10.2 µM). For the same compound, the MIC (Fusarium spp.) was greater than 39.2 µg/mL, the MIC (Fusarium spp.; read-out: MIC UTHSC) was greater than 32 µg/mL and the “effect of CO2 levels on A. fumigatus susceptibility” value (Aspergillus fumigatus [1]) was “not impacted by CO2 levels”. The MIC (Aspergillus fumigatus [1]; Aspergillus fumigatus, read-out: MIC (activity against various A. fumigatus strains)) was roughly 2 µg/mL (≈ 5.1 µM), the MIC (Aspergillus flavus; ATCC204304, strain ATCC 204304) was greater than 32 µg/mL and the MIC (Aspergillus flavus; strain Aflav1) was greater than 32 µg/mL. For the same compound, the “MIC UTHSC” value (Aspergillus flavus; strain Aflav2) was greater than 32 µg/mL, the MIC (Candida auris; Clade I, Clade III) was greater than 39.2 µg/mL and the MIC (Candida auris; NIH: DI17-47, DI17-48, DI17-46, read-out: MIC UTHSC) was greater than 32 µg/mL. The MIC ([2]; read-out: MBX-7591 MIC vs A. fumigatus (+) FLC) was 0.4 µM, the MIC ([2]; read-out: MBX-7591 MIC vs A. fumigatus (−) FLC) was 1.2 µM and the MIC ([2]; read-out: MIC (+Flu)) was 5 µM. The MIC ([2]; read-out: MIC (-Fluc)) was 20 µM, the “Fold MIC” value ([2]; MIC-FLC/MIC+FLC, Table S2) was 4 and the “Ratio (MIC −FLC / MIC +FLC)” value ([2]; Table 1) was 3. The “colony formation after 48 hours of treatment of conidia” value (Aspergillus fumigatus [3]) was “No colony-forming units were observed at or 2× the MIC”, the MIC (Aspergillus nidulans) was greater than 39.2 µg/mL and the “C14:0 relative percentage of fatty acids” value (A. fumigatus CEA10) was 0.19 ± 0.057. For the same compound, the “C15:0 relative percentage of fatty acids” value (A. fumigatus CEA10) was 0.59 ± 0.034, the “C16:0 (palmitic acid) relative percentage of fatty acids” value (A. fumigatus CEA10) was 23.30 ± 0.48 and the “C16:1n7 relative percentage of fatty acids” value (A. fumigatus CEA10) was 0.68 ± 0.040. The “C17a relative percentage of fatty acids” value (A. fumigatus CEA10) was 0.15 ± 0.025, the “C18:0 (stearic acid) relative percentage of fatty acids” value (A. fumigatus CEA10) was 4.44 ± 0.95 and the “C18:1n7 relative percentage of fatty acids” value (A. fumigatus CEA10) was 1.30 ± 0.18. For the same compound, the “C18:1n9 (oleic acid) relative percentage of fatty acids” value (A. fumigatus CEA10) was 20.48 ± 1.30, the “C18:2n6 relative percentage of fatty acids” value (A. fumigatus CEA10) was 48.87 ± 0.91 and the MIC (Histoplasma capsulatum; [5]) was 4 µg/mL (≈ 10.2 µM). The MIC (Histoplasma capsulatum; [6]) was 1 µg/mL (≈ 2.55 µM), the MIC (Histoplasma capsulatum; [7]) was 0.5 µg/mL (≈ 1.27 µM) and the half-life [4] was 40 min. It also gave an MIC (Blastomyces dematitidis; strain DI19-271) of 0.5 µg/mL (≈ 1.27 µM), an MIC (Blastomyces dematitidis; strain DI19-277) of 8 µg/mL (≈ 20.4 µM) and an MIC (Blastomyces dematitidis; strain DI19-282) of 4 µg/mL (≈ 10.2 µM). For the same compound, the MIC (Coccidioides spp.; [5]) was greater than 32 µg/mL, the MIC (Coccidioides spp.; [6]) was 8 µg/mL (≈ 20.4 µM) and the MIC (Coccidioides spp.; [7]) was greater than 32 µg/mL. For the same compound, the MIC (Rhizopus delemar) was 0.31 µg/mL (≈ 0.79 µM), the MIC (Rhizopus delemar; read-out: MIC UTHSC) was roughly 0.25 µg/mL (≈ 0.637 µM) and the “MIC UTHSC” value (Rhizopus delemar) was 0.25 µg/mL (≈ 0.637 µM). The inhibition at 10 µM (CYP3A4) was 89%, the efflux ratio (Caco-2 permeability) was 0.49 and the Papp A→B (Caco-2 permeability; A→B, method b66 gives Papp in cm/s) was 11 ×10⁻⁶ cm/s. It also gave a Papp B→A (Caco-2 permeability; B→A, method b66 gives Papp in cm/s) of 5.6 ×10⁻⁶ cm/s.
